# Experiments:
# [1] = test system: native porcine B7-2 molecule expressed on the surface of porcine B7-2 transfected P815 cells; assay: Flow cytometry of immunised-mouse sera on poB7-2 transfected P815 cells; type: binding; conditions: for recognition (staining) of porcine B7-2 transfected P815 cells by sera: sera of mice immunised with single peptide, FIGS. 17a and 17b
# Source text: (II) Transfected P815 cells are crucial reagents for the detection of porcine anti-B7-2 antibody in the sera of immunised mice which have undergone the chimeric peptide immunisation regimen. Flow cytometric analysis with control or poB7-2-transfected P815 cells, reflects the specificity of sera for B7-2.
# (§1) Peptide ELISAs are used to screen for the presence of anti-peptide antibody in the sera. Peptides are coated to plates by virtue of aldehyde linkages to allow free access of Ab to the peptide (78), Plates are coated with individual peptides or the ova control peptide to enable the identification of specific peptides of interest. To detect reactivity of sera with the native B7-2 molecule expressed on the surface of PoB7-2 transfected P815 cells, flow cytometry is performed following surface staining. Having identified CS peptide of interest (peptide ELISA positive and recognising native B7-2) the sera is used to inhibit in vitro T cell proliferative responses. This determines whether the antibody is a blocking antibody.
# (§2) Immunisations involved two groups of mice, one received a pool of all nine B7-2 peptides, and one receiving ova control peptide. The harvested sera were screened by peptide ELISA (FIG. 14a or 14b) which enabled the identification of peptides of interest. […] Peptide 4 and 6 were selected as candidate peptides and used in subsequent immunisation protocol. […] Similar protocols will be followed with peptide 2.
# T cell proliferation = T cell proliferation response to whole ovalbumin or OVA 323-339 peptide after immunisation with whole ovalbumin; type: in vivo, C57BL-6 mice; conditions: following immunisation with whole ovalbumin; FIG. 13
# Source text: FIG. 13 represents a comparison of T cell proliferation response to whole ovalbumen or the ovalbumen peptide Ova323-339;
# The peptide sequences and amino acid positions for peptides 1-10 relate to the position of the B7-2 peptide sequence within porcine B7-2. The amino acid position for the ova sequence is only indicated for the Ova peptide. A 17 amino acid peptide from chicken egg albumin (ovalbumin) was selected as the T cell epitope, OVA323-339 (ISQAVHAAHAEINEAGR). This epitope was selected on the basis of published reports for the generation of a H-2^b restricted T cell response (76, 77). […] Peptides were generated on a peptide synthesiser (Genosys) and crude peptides were purified by HPLC to greater than 70% purity.
# porcine B7-2 peptides = assay: Peptide ELISA of sera from mice immunised with OVA-B7-2 chimeric peptides; type: in vivo, C57BL-6 mice; conditions: for level of peptide-specific IgG in the sera of immunised mice: immunisation with peptide 4 or 6, FIGS. 15a and 15b; for binding of antisera to B7 peptide versus ova control by peptide ELISA: sera of mice that received a pool of all nine B7-2 peptides, FIG. 14a or 14b
# Source text: C57BL-6 mice are immunised with whole ovalbumin in CFA, followed by either control peptide (OVA peptide) or CS peptides (OVA-B7-2 constructs) for three weekly immunisations. Blood is collected following sacrifice and sera prepared using a standard technique. Presence of specific mouse anti-porcine B7-2 IgG and/or IgM Ab is detected by one of two strategies.
# as §1, §2
# [2] = test system: direct mouse anti porcine T cell responses; assay: Inhibition of in vitro T cell proliferative responses by peptide sera; type: cell-based; conditions: FIG. 15b
# Procedure: as §1
# murine CD86 = target: T1, murine CD86 (Mus musculus, UniProt P42082); assay: Inhibition of costimulation by murine CD86 by peptide sera; type: cell-based; conditions: FIG. 15b
# T1 sequence (P42082 24-309): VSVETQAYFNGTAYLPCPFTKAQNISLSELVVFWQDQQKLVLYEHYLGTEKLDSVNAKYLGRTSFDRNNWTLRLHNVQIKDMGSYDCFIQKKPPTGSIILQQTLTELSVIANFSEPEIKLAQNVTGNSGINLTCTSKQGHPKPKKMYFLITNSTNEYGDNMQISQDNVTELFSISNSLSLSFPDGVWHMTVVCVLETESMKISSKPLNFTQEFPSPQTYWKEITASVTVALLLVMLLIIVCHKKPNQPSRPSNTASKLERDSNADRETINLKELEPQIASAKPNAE
Substance,recognition (staining) of porcine B7-2 transfected P815 cells by sera [1],staining of untransfected control P815 cells by sera [1],proliferative response of C57BL-6 mice (H-2b haplotype) (T cell proliferation),level of peptide-specific IgG in the sera of immunised mice (porcine B7-2 peptides),binding of antisera to B7 peptide versus ova control by peptide ELISA (porcine B7-2 peptides),inhibition of direct mouse anti porcine T cell responses by sera [2],inhibition of costimulation by murine CD86 by sera (murine CD86),"specificity of the sera for the peptide versus ova control (porcine B7-2 peptides; peptide ELISA, FIG. 16)"
"ISQAVHAAHAEINEAGR [Ova Peptide, control peptide, reference compound]",do not stain,do not stain,mount a proliferative response,,,,,
ISQAVHAAHAEINEAGRCSSTQGYPEPQR [Peptide 6],specifically recognise the native porcine B7-2 molecule,do not stain,,significant level of IgG,preferential binding to B7 peptide than to ova control,inhibition of direct mouse anti porcine T cell responses,no inhibition,
ISQAVHAAHAEINEAGRGLVPIHQMS [Peptide 4],specifically recognise the native porcine B7-2 molecule,do not stain,,significant level of IgG,preferential binding to B7 peptide than to ova control,inhibition of direct mouse anti porcine T cell responses,no inhibition,specificity of the sera for peptide 4 and not to ova control
ISQAVHAAHAEINEAGRLPCHFTNSQ [Peptide 2],,,,,preferential binding to B7 peptide than to ova control,,,
ovalbumin [chicken egg albumin used whole for priming immunisation],,,mount a proliferative response,,,,,
